Reference: US9856279B2 (AGIOS PHARMACEUTICALS, INC, priority 2011, dated 2018)
pIC50: −log10 of the molar value. Like-named read-outs stand apart in the source and are kept apart here.

What was measured:
IDH1 R132H = IDH1 R132H (Homo sapiens, UniProt O75874, R132H); assay: Assay for IDH1 R132H inhibitors (NADPH/aKG, resazurin detection); format: biochemical; conditions: enzyme assay of Example 12; read-out: IDH1R132H IC50
Outline: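 Read-out is resorufin fluorescence (Ex544/Em590) 5 min after adding a 30 μM resazurin detection mix. Before that, mutant enzyme (0.2 μg/ml in its mix) ran 50 min at room temperature with compound, 8 uM NADPH and 2 mM aKG (mix levels) in Tris pH 7.5 with NaCl, MgCl2, BSA.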

HT1080 cells = assay: Cellular assay for IDH1m inhibitors: inhibition of 2-HG production (LC-MS, 48 hours) in HT1080 cells; format: cell-based; conditions: Homo sapiens, HT-1080; inhibition of 2-HG production, HT1080 cells; read-out: HT1080 IC50
Outline: (§1)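 Read-out: 2-HG in culture medium by LC-MS after 48 h compound exposure; IC50 = 50% reduction vs DMSO control. Cells plated 5000/well in DMEM/10% FBS, 37 °C, 5% CO2; DMSO 0.2% final.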

U87MG cells = assay: Cellular assay for IDH1m inhibitors: inhibition of 2-HG production (LC-MS, 48 hours) in U87MG cells; format: cell-based; conditions: inhibition of 2-HG production, U87R132H cells, read-out: U87R132H IC50
Outline: as §1

Sequence of IDH1 R132H (O75874 whole entry R132H): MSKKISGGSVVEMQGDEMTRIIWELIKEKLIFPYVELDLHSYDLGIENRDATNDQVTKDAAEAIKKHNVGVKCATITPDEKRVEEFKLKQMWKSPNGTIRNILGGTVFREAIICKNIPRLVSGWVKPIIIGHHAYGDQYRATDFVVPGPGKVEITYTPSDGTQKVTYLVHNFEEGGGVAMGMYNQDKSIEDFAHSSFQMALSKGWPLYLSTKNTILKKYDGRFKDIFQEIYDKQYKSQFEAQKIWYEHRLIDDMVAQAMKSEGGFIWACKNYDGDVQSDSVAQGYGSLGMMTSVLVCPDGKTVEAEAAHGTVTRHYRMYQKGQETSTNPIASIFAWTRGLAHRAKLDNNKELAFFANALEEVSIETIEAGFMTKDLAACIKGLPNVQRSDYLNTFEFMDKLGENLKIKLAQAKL

SMILES	pIC50 (IDH1 R132H)	pIC50 (HT1080 cells)	pIC50 (U87MG cells; Homo sapiens, U-87 MG)	pIC50 (U87MG cells)
C=CC(=O)N1CCC=C(c2cc(C#N)c(N3CCN(C(=O)CCO)[C@H](C4CC4)C3)nc2C2CC2)C1 [Compound 727, (R)-5-(1-acryloyl-1,2,5,6-tetrahydropyridin-3-yl)-6-cyclopropyl-2-(3-cyclopropyl-4-(3-hydroxypropanoyl)piperazin-1-yl)nicotinonitrile]	> 6.30	> 6.30	> 6.30	–
C=CC(=O)N1CCC=C(c2cc(C#N)c(N3CCN(C(=O)COC)[C@H](C4CC4)C3)nc2C2CC2)C1 [Compound 728, (R)-5-(1-acryloyl-1,2,5,6-tetrahydropyridin-3-yl)-6-cyclopropyl-2-(3-cyclopropyl-4-(2-methoxyacetyl)piperazin-1-yl)nicotinonitrile]	> 6.30	> 6.30	> 6.30	–
C=Cc1cc(N(C)c2cc(C#N)c(N3CCN(C(=O)CCO)[C@H](C4CC4)C3)nc2C2CC2)ccn1 [Compound 730, (R)-6-cyclopropyl-2-(3-cyclopropyl-4-(3-hydroxypropanoyl)piperazin-1-yl)-5-(methyl(2-vinylpyridin-4-yl)amino)nicotinonitrile]	> 6.30	> 6.30	> 6.30	–
C=Cc1ccc2ccc(Nc3cc(C#N)c(N4CCN(C(=O)CCOC)[C@H](C)C4)nc3C3CC3)cc2n1 [Compound 732, (R)-6-cyclopropyl-2-(4-(3-methoxypropanoyl)-3-methylpiperazin-1-yl)-5-(2-vinylquinolin-7-ylamino) nicotinonitrile]	> 6.30	> 6.30	> 6.30	–
C=Cc1ccnc(Oc2cc(C#N)c(N3CCN(C(=O)CCOC)[C@H](C4CC4)C3)nc2C2CC2)c1 [Compound 733]	> 6.30	6.00 to 6.30	> 6.30	–
C=Cc1ccc2c(-c3cc(C#N)c(N4CCN(C(=O)CCO)[C@H](C5CC5)C4)nc3C3CC3)cncc2n1 [Compound 735, (R)-6-cyclopropyl-2-(3-cyclopropyl-4-(3-hydroxypropanoyl)piperazin-1-yl)-5-(2-vinyl-1,7-naphthyridin-5-yl)nicotinonitrile]	> 6.30	> 6.30	> 6.30	–
C=Cc1ccnc(Nc2cc(C#N)c(N3CCN(C(=O)CCOC)[C@H](C)C3)nc2C2CC2)n1 [Compound 736, (R)-6-cyclopropyl-2-(4-(3-methoxypropanoyl)-3-methylpiperazin-1-yl)-5-((4-vinylpyrimidin-2-yl)amino)nicotinonitrile]	> 6.30	> 6.30	> 6.30	–
C=Cc1ncc2c(-c3cc(C#N)c(N4CCN(C(=O)CCO)[C@H](C5CC5)C4)nc3C3CC3)cccc2n1 [Compound 737]	> 6.30	6.00 to 6.30	–	6.00 to 6.30
C=Cc1cc(-c2cc(C#N)c(N3CCN(C(=O)CO)[C@H](C4CC4)C3)nc2C2CC2)ccn1 [Compound 738, (R)-2-cyclopropyl-6-(3-cyclopropyl-4-(2-hydroxyacetyl)piperazin-1-yl)-2′-vinyl-3,4′-bipyridine-5-carbonitrile]	> 6.30	> 6.30	> 6.30	–
C=Cc1cc(-c2cc(C#N)c(N3CCN(C(=O)CCO)[C@H](C4CC4)C3)nc2C2CC2)c2cc[nH]c2n1 [Compound 740, (R)-6-cyclopropyl-2-(3-cyclopropyl-4-(3-hydroxypropanoyl)piperazin-1-yl)-5-(6-vinyl-1H-pyrrolo[2,3-b]pyridin-4-yl)nicotinonitrile]	> 6.30	> 6.30	> 6.30	–
C=Cc1cc(-c2cc(C#N)c(N3CCN(C(=O)COC)[C@H](C(C)C)C3)nc2C2CC2)c2ccncc2n1 [Compound 741, (R)-6-cyclopropyl-2-(3-isopropyl-4-(2-methoxyacetyl)piperazin-1-yl)-5-(2-vinyl-1,7-naphthyridin-4-yl)nicotinonitrile]	> 6.30	> 6.30	> 6.30	–
C=Cc1cc(Nc2c(C3CC3)nc(N3CCN(C(=O)CCO)[C@H](C4CC4)C3)c(C#N)c2C)ccn1 [Compound 742, (R)-6-cyclopropyl-2-(3-cyclopropyl-4-(3-hydroxypropanoyl)piperazin-1-yl)-4-methyl-5-(2-vinylpyridin-4-ylamino)nicotinonitrile]	> 6.30	> 6.30	> 6.30	–
C=Cc1cc(Nc2cc(C#N)c(N3CCN(C(=O)COC)[C@H](C(C)C)C3)nc2C2CC2)ccn1 [Compound 743, (R)-6-cyclopropyl-2-(3-isopropyl-4-(2-methoxyacetyl)piperazin-1-yl)-5-((2-vinylpyridin-4-yl)amino)nicotinonitrile]	> 6.30	> 6.30	> 6.30	–
C=Cc1cc(-c2cc(C#N)c(N3CCN(C(=O)CCO)[C@H](C4CC4)C3)nc2C2CC2)c2cnn(C)c2n1 [Compound 744, (R)-6-cyclopropyl-2-(3-cyclopropyl-4-(3-hydroxypropanoyl)piperazin-1-yl)-5-(1-methyl-6-vinyl-1H-pyrazolo[3,4-b]pyridin-4-yl)nicotinonitrile]	> 6.30	> 6.30	> 6.30	–
C=CC(=O)N1CCC=C(c2c(C3CC3)nc(N3CCN(C(=O)CCOC)[C@H](C4CC4)C3)c(C#N)c2C)C1 [Compound 745, (R)-5-(1-acryloyl-1,2,5,6-tetrahydropyridin-3-yl)-6-cyclopropyl-2-(3-cyclopropyl-4-(3-methoxypropanoyl)piperazin-1-yl)-4-methylnicotinonitrile]	> 6.30	> 6.30	> 6.30	–
C=Cc1cc(-c2c(C3CC3)nc(N3CCN(C(=O)CCOC)[C@H](C4CC4)C3)c(C#N)c2C)c2ccncc2n1 [Compound 746, 6-cyclopropyl-2-((R)-3-cyclopropyl-4-(3-methoxypropanoyl)piperazin-1-yl)-4-methyl-5-(2-vinyl-1,7-naphthyridin-4-yl)nicotinonitrile]	> 6.30	> 6.30	> 6.30	–
C=Cc1cc(-c2cc(C#N)c(N3CCN(C(=O)CCCOC)[C@H](C4CC4)C3)nc2C2CC2)ccn1 [Compound 747, (R)-2-cyclopropyl-6-(3-cyclopropyl-4-(4-methoxybutanoyl)piperazin-1-yl)-2′-vinyl-3,4′-bipyridine-5-carbonitrile]	> 6.30	> 6.30	> 6.30	–
N#Cc1cc(Nc2ccnc(Cl)c2)c(C2CC2)nc1N1CCN(C(=O)C[C@H]2CCO2)[C@H](C2CC2)C1 [Compound 748, 5-(2-chloropyridin-4-ylamino)-6-cyclopropyl-2-((R)-3-cyclopropyl-4-(2-((R)-oxetan-2-yl)acetyl)piperazin-1-yl)nicotinonitrile]	> 6.30	> 6.30	> 6.30	–
C=Cc1cc(-c2c(C3CC3)nc(N3CCN(C(=O)CCOC)[C@H](C4CC4)C3)c(C#N)c2C)cnn1 [Compound 749, (R)-6-cyclopropyl-2-(3-cyclopropyl-4-(3-methoxypropanoyl)piperazin-1-yl)-4-methyl-5-(6-vinylpyridazin-4-yl)nicotinonitrile]	> 6.30	> 6.30	> 6.30	–
C#Cc1ccnc(Nc2cc(C#N)c(N3CCN(C(=O)COC)[C@H](C4CC4)C3)nc2C2CC2)c1 [Compound 750, (R)-6-cyclopropyl-2-(3-cyclopropyl-4-(2-methoxyacetyl)piperazin-1-yl)-5-(4-ethynylpyridin-2-ylamino)nicotinonitrile]	> 6.30	> 6.30	> 6.30	–
C=Cc1cc(Nc2cc(C#N)c(N3CCN(C(=O)C[C@H]4CCO4)[C@H](C4CC4)C3)nc2C2CC2)ccn1 [Compound 751, 6-cyclopropyl-2-((R)-3-cyclopropyl-4-(2-((R)-oxetan-2-yl)acetyl)piperazin-1-yl)-5-(2-vinylpyridin-4-ylamino)nicotinonitrile]	> 6.30	> 6.30	> 6.30	–
C=Cc1cc(-c2cc(C#N)c(N3CCN(C(=O)C[C@H]4CCO4)[C@H](C4CC4)C3)nc2C2CC2)ccn1 [Compound 752, 2-cyclopropyl-6-((R)-3-cyclopropyl-4-(2-((R)-oxetan-2-yl)acetyl)piperazin-1-yl)-2′-vinyl-3,4′-bipyridine-5-carbonitrile]	> 6.30	> 6.30	> 6.30	–
C=Cc1cc(-c2cc(C#N)c(N3CCN(C(=O)CCCO)[C@H](C4CC4)C3)nc2C2CC2)ccn1 [Compound 753, (R)-2-cyclopropyl-6-(3-cyclopropyl-4-(4-hydroxybutanoyl)piperazin-1-yl)-2′-vinyl-3,4′-bipyridine-5-carbonitrile]	> 6.30	> 6.30	> 6.30	–
C=Cc1cc(Nc2cc(C#N)c(N3CCN(C(=O)CCO)[C@H](C(C)C)C3)nc2C2CC2)ccn1 [Compound 754, (R)-6-cyclopropyl-2-(4-(3-hydroxypropanoyl)-3-isopropylpiperazin-1-yl)-5-(2-vinylpyridin-4-ylamino)nicotinonitrile]	> 6.30	> 6.30	> 6.30	–
C=CC(=O)N1CCC=C(c2c(C3CC3)nc(N3CCN(C(=O)CCO)[C@H](C4CC4)C3)c(C#N)c2C)C1 [Compound 755, (R)-5-(1-acryloyl-1,2,5,6-tetrahydropyridin-3-yl)-6-cyclopropyl-2-(3-cyclopropyl-4-(3-hydroxypropanoyl)piperazin-1-yl)-4-methylnicotinonitrile]	> 6.30	> 6.30	> 6.30	–
